The values that follow come from patent publication US20160060260A1, “BROMODOMAIN INHIBITORS FOR TREATING DISEASE” (Board of Regents, The University of Texas System, priority 2014, published 2016).

pIC50: −log10 of the molar value.

The target in this experiment is T1, Recombinant human His-tagged Trim24-PHD-bromodomain (Homo sapiens, UniProt O15164).
T1 construct: Recombinant human His-tagged Trim24-PHD-bromodomain (produced in-house); made in house
T1 sequence (O15164 824-1006 limits assumed): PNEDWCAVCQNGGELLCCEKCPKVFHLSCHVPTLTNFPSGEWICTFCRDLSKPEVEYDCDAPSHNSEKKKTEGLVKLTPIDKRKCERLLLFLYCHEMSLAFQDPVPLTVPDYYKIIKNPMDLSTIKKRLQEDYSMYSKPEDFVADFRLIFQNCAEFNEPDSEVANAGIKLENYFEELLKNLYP
The experiment can be described thus: Trim24 AlphaScreen Assay. Type of experiment: binding. To be noted: 5 nM Trim24 protein, 15 nM biotinylated H3K23ac (1-33aa) peptide. Here is the method: Recombinant human His-tagged Trim24-PHD-bromodomain (produced in-house), biotinylated H3K23ac (1-33aa) peptide (AnaSpec, Inc.), and test compound were added to a 384-well OptiPlate (Perkin Elmer) and incubated at room temperature for one hour. The assay buffer consisted of 50 mM Hepes, pH 7.5, 100 mM NaCl, and 0.12 mM Triton X-100.
Streptavidin donor beads and nickel chelate acceptor beads, both from a Perkin Elmer AlphaScreen Histidine Detection Kit, were then added to the Optiplate to a final concentration of 10 ug/mL each. Following a 2 hour incubation at room temperature, the microplate was read on an Envision Plate Reader (Perkin Elmer). Percent of control (POC) values were calculated from the following formula:
POC=[sample signal-average background signal]/[average maximum signal−average background signal]*100
The average maximum signal was obtained from wells containing all assay components except test compound. The average background signal pertained to wells with all assay components except Trim24 and test compound. IC50 values were calculated using a four-parameter logistic curve fit.
As to `CC(C)c1cccc(S(=O)(=O)Nc2cc3c(cc2Oc2cccc(OCc4ccccc4)c2)n(C)c(=O)n3C)c1` [Example 32, N-(6-(3-(benzyloxy)phenoxy)-1,3-dimethyl-2-oxo-2,3-dihydro-1H-benzo[d]imidazol-5-yl)-3-isopropylbenzenesulfonamide], the pIC50 was under 6.00.

In the case of `CCc1cccc(S(=O)(=O)Nc2cc3c(cc2Oc2cccc(OCc4ccccc4)c2)n(C)c(=O)n3C)c1` [Example 33, N-(6-(3-(benzyloxy)phenoxy)-1,3-dimethyl-2-oxo-2,3-dihydro-1H-benzo[d]imidazol-5-yl)-3-ethylbenzenesulfonamide], the pIC50 is under 6.00.

For `Cc1cccc(S(=O)(=O)Nc2cc3c(cc2Oc2cccc(OCc4ccccc4)c2)n(C)c(=O)n3C)c1` [Example 34, N-(6-(3-(benzyloxy)phenoxy)-1,3-dimethyl-2-oxo-2,3-dihydro-1H-benzo[d]imidazol-5-yl)-3-methylbenzenesulfonamide], the negative-log IC50 (pIC50) is 6.00 to 7.00.

In the case of `Cc1ccccc1S(=O)(=O)Nc1cc2c(cc1Oc1cccc(OCc3ccccc3)c1)n(C)c(=O)n2C` [Example 35, N-(6-(3-(benzyloxy)phenoxy)-1,3-dimethyl-2-oxo-2,3-dihydro-1H-benzo[d]imidazol-5-yl)-2-methylbenzenesulfonamide], the pIC50 was under 6.00.

Consider `Cn1c(=O)n(C)c2cc(Oc3cccc(OCc4ccccc4)c3)c(NS(=O)(=O)c3ccc4c(c3)OCO4)cc21` [Example 36, N-(6-(3-(benzyloxy)phenoxy)-1,3-dimethyl-2-oxo-2,3-dihydro-1H-benzo[d]imidazol-5-yl)benzo[d][1,3]dioxole-5-sulfonamide], for which the pIC50 is 6.00 to 7.00.

`Cn1c(=O)n(C)c2cc(Oc3cccc(OCc4ccccc4)c3)c(NS(=O)(=O)c3ccccc3Br)cc21` [Example 37, N-(6-(3-(benzyloxy)phenoxy)-1,3-dimethyl-2-oxo-2,3-dihydro-1H-benzo[d]imidazol-5-yl)-2-bromobenzenesulfonamide]: the pIC50 was under 6.00.

Take `Cn1c(=O)n(C)c2cc(Oc3cccc(OCc4ccccc4)c3)c(NS(=O)(=O)c3cccc(Br)c3)cc21` [Example 38, N-(6-(3-(benzyloxy)phenoxy)-1,3-dimethyl-2-oxo-2,3-dihydro-1H-benzo[d]imidazol-5-yl)-3-bromobenzenesulfonamide]: the pIC50 was under 6.00.

As for `Cn1cnc(S(=O)(=O)Nc2cc3c(cc2Oc2cccc(OCc4cccnc4)c2)n(C)c(=O)n3C)c1` [Example 39, N-(1,3-dimethyl-2-oxo-6-(3-(pyridin-3-ylmethoxy)phenoxy)-2,3-dihydro-1H-benzo[d]imidazol-5-yl)-1-methyl-1H-imidazole-4-sulfonamide], the negative-log IC50 (pIC50) is 6.00 to 7.00.

For `Cn1cnc(S(=O)(=O)Nc2cc3c(cc2Oc2cccc(OCc4cccc(C#N)c4)c2)n(C)c(=O)n3C)c1` [Example 40, N-(6-(3-((3-cyanobenzyl)oxy)phenoxy)-1,3-dimethyl-2-oxo-2,3-dihydro-1H-benzo[d]imidazol-5-yl)-1-methyl-1H-imidazole-4-sulfonamide], the pIC50 was under 6.00.

As for `Cc1c(S(=O)(=O)Nc2cc3c(cc2Oc2cccc(OCc4ccccc4)c2)n(C)c(=O)n3C)cnn1C` [Example 41, N-(6-(3-(benzyloxy)phenoxy)-1,3-dimethyl-2-oxo-2,3-dihydro-1H-benzo[d]imidazol-5-yl)-1,5-dimethyl-1H-pyrazole-4-sulfonamide], the pIC50 was 6.00 to 7.00.

For the compound `CCn1nccc1S(=O)(=O)Nc1cc2c(cc1Oc1cccc(OCc3ccccc3)c1)n(C)c(=O)n2C` [Example 42, N-(6-(3-(benzyloxy)phenoxy)-1,3-dimethyl-2-oxo-2,3-dihydro-1H-benzo[d]imidazol-5-yl)-1-ethyl-1H-pyrazole-5-sulfonamide], the pIC50 is 6.00 to 7.00.

As to `Cn1c(=O)n(C)c2cc(Oc3cccc(OCc4ccccc4)c3)c(NS(=O)(=O)c3cccc(F)c3)cc21` [Example 43, N-(6-(3-(benzyloxy)phenoxy)-1,3-dimethyl-2-oxo-2,3-dihydro-1H-benzo[d]imidazol-5-yl)-3-fluorobenzenesulfonamide], the pIC50 was 6.00 to 7.00.

In the case of `COc1cc(OC)cc(S(=O)(=O)Nc2cc3c(cc2Oc2cccc(OCc4ccccc4)c2)n(C)c(=O)n3C)c1` [Example 44, N-(6-(3-(benzyloxy)phenoxy)-1,3-dimethyl-2-oxo-2,3-dihydro-1H-benzo[d]imidazol-5-yl)-3,5-dimethoxybenzenesulfonamide], the pIC50 is 6.00 to 7.00.

On to `Cc1ncc(S(=O)(=O)Nc2cc3c(cc2Oc2cccc(OCc4ccccc4)c2)n(C)c(=O)n3C)s1` [Example 47, N-(6-(3-(benzyloxy)phenoxy)-1,3-dimethyl-2-oxo-2,3-dihydro-1H-benzo[d]imidazol-5-yl)-2-methylthiazole-5-sulfonamide], for which the pIC50 is 6.00 to 7.00.

Consider `Cc1n[nH]cc1S(=O)(=O)Nc1cc2c(cc1Oc1cccc(OCc3ccccc3)c1)n(C)c(=O)n2C` [Example 48, N-(6-(3-(benzyloxy)phenoxy)-1,3-dimethyl-2-oxo-2,3-dihydro-1H-benzo[d]imidazol-5-yl)-3-methyl-1H-pyrazole-4-sulfonamide], for which the pIC50 is 6.00 to 7.00.

In the case of `Cc1nc(S(=O)(=O)Nc2cc3c(cc2Oc2cccc(OCc4ccccc4)c2)n(C)c(=O)n3C)c[nH]1` [Example 49, N-(6-(3-(benzyloxy)phenoxy)-1,3-dimethyl-2-oxo-2,3-dihydro-1H-benzo[d]imidazol-5-yl)-2-methyl-1H-imidazole-4-sulfonamide], the pIC50 is 6.00 to 7.00.

Take `CCn1cnc(S(=O)(=O)Nc2cc3c(cc2Oc2cccc(OCc4ccccc4)c2)n(C)c(=O)n3C)c1` [Example 50, N-(6-(3-(benzyloxy)phenoxy)-1,3-dimethyl-2-oxo-2,3-dihydro-1H-benzo[d]imidazol-5-yl)-1-ethyl-1H-imidazole-4-sulfonamide]: the pIC50 was 6.00 to 7.00.

On to `Cn1c(=O)n(C)c2cc(Oc3cccc(OCc4ccccc4)c3)c(NS(=O)(=O)c3cn[nH]c3)cc21` [Example 51, N-(6-(3-(benzyloxy)phenoxy)-1,3-dimethyl-2-oxo-2,3-dihydro-1H-benzo[d]imidazol-5-yl)-1H-pyrazole-4-sulfonamide], for which the pIC50 was 6.00 to 7.00.

Take `COc1ccccc1S(=O)(=O)Nc1cc2c(cc1Oc1cccc(OCc3ccccc3)c1)n(C)c(=O)n2C` [Example 52, N-(6-(3-(benzyloxy)phenoxy)-1,3-dimethyl-2-oxo-2,3-dihydro-1H-benzo[d]imidazol-5-yl)-2-methoxybenzenesulfonamide]: the pIC50 is 6.00 to 7.00.

For the compound `COCCOc1cccc(Oc2cc3c(cc2NS(=O)(=O)c2cn(C)c(C)n2)n(C)c(=O)n3C)c1` [Example 53, N-(6-(3-(2-methoxyethoxy)phenoxy)-1,3-dimethyl-2-oxo-2,3-dihydro-1H-benzo[d]imidazol-5-yl)-1,2-dimethyl-1H-imidazole-4-sulfonamide], the pIC50 is 6.00 to 7.00.

For the compound `Cc1nc(S(=O)(=O)Nc2cc3c(cc2Oc2cccc(OC(C)C)c2)n(C)c(=O)n3C)cn1C` [Example 54, N-(6-(3-isopropoxyphenoxy)-1,3-dimethyl-2-oxo-2,3-dihydro-1H-benzo[d]imidazol-5-yl)-1,2-dimethyl-1H-imidazole-4-sulfonamide], the pIC50 is 6.00 to 7.00.

For the compound `Cc1nc(S(=O)(=O)Nc2cc3c(cc2Oc2cccc(OCCCO)c2)n(C)c(=O)n3C)cn1C` [Example 55, N-(6-(3-(3-hydroxypropoxy)phenoxy)-1,3-dimethyl-2-oxo-2,3-dihydro-1H-benzo[d]imidazol-5-yl)-1,2-dimethyl-1H-imidazole-4-sulfonamide], the pIC50 was 6.00 to 7.00.

Regarding `Cc1nc(S(=O)(=O)Nc2cc3c(cc2Oc2cccc(OCC(=O)N(C)C)c2)n(C)c(=O)n3C)cn1C` [Example 56, 2-(3-((6-((1,2-dimethyl-1H-imidazole)-4-sulfonamido)-1,3-dimethyl-2-oxo-2,3-dihydro-1H-benzo[d]imidazol-5-yl)oxy)phenoxy)-N,N-dimethylacetamide], the pIC50 was under 6.00.

Regarding `CCCCOc1cccc(Oc2cc3c(cc2NS(=O)(=O)c2cn(C)c(C)n2)n(C)c(=O)n3C)c1` [Example 57, N-(6-(3-butoxyphenoxy)-1,3-dimethyl-2-oxo-2,3-dihydro-1H-benzo[d]imidazol-5-yl)-1,2-dimethyl-1H-imidazole-4-sulfonamide], the pIC50 is 6.00 to 7.00.

For `Cc1nc(S(=O)(=O)Nc2cc3c(cc2Oc2cccc(OCC4CC4)c2)n(C)c(=O)n3C)cn1C` [Example 58, N-(6-(3-(cyclopropylmethoxy)phenoxy)-1,3-dimethyl-2-oxo-2,3-dihydro-1H-benzo[d]imidazol-5-yl)-1,2-dimethyl-1H-imidazole-4-sulfonamide], the pIC50 was 7.00 to 8.00.

Regarding `CC(C)COc1cccc(Oc2cc3c(cc2NS(=O)(=O)C2CC2)n(C)c(=O)n3C)c1` [Example 59, N-(6-(3-isobutoxyphenoxy)-1,3-dimethyl-2-oxo-2,3-dihydro-1H-benzo[d]imidazol-5-yl)cyclopropanesulfonamide], the pIC50 is 6.00 to 7.00.

For the compound `CC(C)COc1cccc(Oc2cc3c(cc2NS(=O)(=O)c2cnn(C)c2)n(C)c(=O)n3C)c1` [Example 60, N-(6-(3-isobutoxyphenoxy)-1,3-dimethyl-2-oxo-2,3-dihydro-1H-benzo[d]imidazol-5-yl)-1-methyl-1H-pyrazole-4-sulfonamide], the pIC50 was 7.00 to 8.00.
